From publication PMC8365601, “Terphenyl-Based Small-Molecule Inhibitors of Programmed Cell Death-1/Programmed Death-Ligand 1 Protein–Protein Interaction” (Journal of Medicinal Chemistry, 2021)
Where two headings read alike, the source gives them in different places.

Columns and labels:
[1] = target: T1, human PD-L1 (Homo sapiens, UniProt Q9NZQ7); test: 1H NMR titration with human PD-L1; type: binding; details: molar ratio 1:1
T1 construct: pET-21b plasmid carrying the PD-L1 gene (amino acids 18–134); made in house; host or cells: Escherichia coli BL21
T1 sequence (Q9NZQ7 18-134): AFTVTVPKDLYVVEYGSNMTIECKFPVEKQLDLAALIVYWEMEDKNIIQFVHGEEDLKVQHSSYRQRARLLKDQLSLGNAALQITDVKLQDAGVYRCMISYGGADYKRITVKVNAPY
Procedure: NMR spectra were recorded in PBS pH 7.4 containing 10% (v/v) of D2O added to the samples to provide the lock signal. Water suppression was carried out using the WATERGATE sequence. All the spectra were recorded at 300 K using a Bruker AVANCE 600 MHz spectrometer with the cryo-platform. The spectra were recorded at the ligand/protein ratio of 1:1, unless stated otherwise. The samples were prepared by adding small amounts of a 50 mM ligand stock solution in DMSO to the protein solution (0.20 mL) of PD-L1 fragment at a concentration of 0.2 mM. Spectra were visualized using TopSpin 4.0.2.

[2] = Cytotoxicity assay toward Jurkat-ECs; type: cell-based; details: human, Jurkat-EC cells, SI csv
Procedure: The cytotoxicity of compounds was verified toward Jurkat-ECs since these cells provide the readout in the ICB assay and present a much higher degree of susceptibility to the compounds’ toxicity than CHO-K1 cells (not shown). Jurkat-ECs were seeded on 96-well transparent plates in the presence of increasing concentrations of the compounds with DMSO-treated cells as a control. The concentration of DMSO was kept constant (0.1%). After 48 h of incubation, a tetrazolium reagent, Biolog redox dye MIX MB (Biolog), was added according to the manufacturer’s protocol, and the culture plates were incubated for an additional 2 h (37 °C, 5% CO2). The absorbance was measured using a Spark microplate reader (Tecan) at 590 nm with 750 nm as a reference. The data are presented as Jurkat-EC survival relative to DMSO-treated control cells. Data points represent mean ± SD values from three independent experiments. Half-maximal effective concentrations (EC50 values) were calculated from the dose–response curve using OriginPro 2020 (OriginLab) software.

[3] = tested on: Jurkat-ECs alone or with CHO wt or CHO/TCRAct cells; test: ICB assay control where PD-L1 is absent; type: cell-based; details: 6 h; Figure S1
Procedure: The functional assay of the blockade of PD-1/PD-L1 interaction in vitro (PD-1/PD-L1 Blockade Bioassay, Promega) was performed according to the manufacturer’s protocol. CHO/TCRAct/PD-L1 cells or CHO/TCRAct or CHO-K1 cells were seeded on 96-well white plates at the density of 10,000 cells/well and the next day overlaid with Jurkat T cells (20,000 cells/well) in the presence of increasing concentrations of the compounds with DMSO only as a control (the concentration of DMSO was kept constant at 0.1%) or atezolizumab, as a positive control, anti-PD-L1 monoclonal antibody (Selleckchem). The 2.5-fold dilutions of atezolizumab were prepared in the assay buffer (RPMI 1640 + 1% FBS) on the day of the assay. Activation of the Jurkat T cells, reflected by luciferase activity, was monitored by luminescence measurements after 6 h of incubation (37 °C, 5% CO2), and 20 min of additional incubation with the Bio-Glo assay reagent (Promega) at room temperature. The luminescence was read on a Spark microplate reader (Tecan). The data are presented as fold induction of the luminescence signal relative to either untreated (for atezolizumab) or DMSO-treated (for compound) cells. Data points represent mean ± SD values from three to five independent experiments. Half-maximal effective concentrations (EC50 values) were calculated from the Hill curve fitting to the experimental data using Origin Pro 2020 software (OriginLab). […]
of the Immune Checkpoint Blockade (ICB) assay, where 8h, 8i, and 8j were used to restore the activation of effector Jurkat-ECs. Jurkat-ECs were either kept alone, or contacted with one of the following cell lines: wild type CHO K1 cells (CHO wt), CHO K1 cells expressing TCR Activator (CHO/TCRAct), or CHO K1 cells expressing TCR Activator and […]. The cells were incubated with the indicated concentrations of the compounds for 6 hours and luminescence was measured as an indicator of TCR-dependent activation of Jurkat-ECs. The graphs present fold induction of the luminescence signal relative to DMSO-treated cells. […]

[4] = target: PD-1/PD-L1 complex (Homo sapiens, UniProt Q9NZQ7); test: HTRF assay of PD-1/PD-L1 complex dissociation (CisBio); details: for remaining activity at 0.005 µM: 2 h;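 for all read-outs here: human PD-L1 at 5 nM with human PD-1 at 50 nM, TR-FRET signal read after 2 h at room temperature, background removed via negative control and scaled to positive control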
Sequence of PD-1/PD-L1 complex (Q9NZQ7 19-238 limits assumed, one chain of several): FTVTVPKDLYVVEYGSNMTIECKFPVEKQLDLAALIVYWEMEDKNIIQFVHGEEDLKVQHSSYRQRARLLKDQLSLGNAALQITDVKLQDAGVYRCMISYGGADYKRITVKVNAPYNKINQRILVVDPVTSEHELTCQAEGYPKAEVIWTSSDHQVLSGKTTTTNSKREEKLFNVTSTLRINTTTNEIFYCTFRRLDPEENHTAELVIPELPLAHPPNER
Procedure: HTRF was performed using the certified CisBio assay according to the manufacturer’s guidelines. The experiments were performed at 5 nM h-PD-L1 and 50 nM hPD-1 in the final formulation at 20 μL final volume in the well. To determine the half-maximal inhibitory concentration (IC50) of tested compounds, measurements were performed on two individual dilution series, unless states otherwise. After mixing all components according to the CisBio protocol, the plate was left for 2 h incubation at room temperature, followed by time-resolved fluorescence energy transfer (TR-FRET) measurement on Tecan Spark 20M. Collected data were background-subtracted on the negative control, normalized on the positive control, averaged, and fitted with normalized Hill’s equation to determine the IC50 value using Mathematica 12.

COc1cc(-c2cccc(-c3ccc4c(c3)OCCO4)c2Cl)ccc1CNC(CO)(CO)CO [8j, 2-(((3′-(Benzo-1,4-dioxan-6-yl)-2′-chloro-3-methoxy-[1,1′-biphenyl]-4-yl)methyl)amino)-2-(hydroxymethyl)propane-1,3-diol]
change of hPD-L1 1H NMR spectrum on adding compound [1]: broadening of the hPD-L1 proton signals
EC50 at 48 h [2]: 2880 ± 390 nM
activation of Jurkat-ECs where PD-L1 is absent [3]: requires the presence of PD-L1
remaining activity at 0.005 µM ([4]; read-out: % of undissociated complex at 5 nM): 0%
remaining activity at 0.005 µM ([4]; read-out: HTRF % of the undissociated complex at 5 nM): 0%
IC50 ([4]; HTRF, Table 4, <1.00 = limit of quantification reached): < 1 nM
